# Activity calls are given as the source filed them. The rule behind the calls is not given here.
# Biological target: T1, Bifunctional epoxide hydrolase 2 (Homo sapiens, UniProt P34913)
# T1 sequence (P34913 whole entry): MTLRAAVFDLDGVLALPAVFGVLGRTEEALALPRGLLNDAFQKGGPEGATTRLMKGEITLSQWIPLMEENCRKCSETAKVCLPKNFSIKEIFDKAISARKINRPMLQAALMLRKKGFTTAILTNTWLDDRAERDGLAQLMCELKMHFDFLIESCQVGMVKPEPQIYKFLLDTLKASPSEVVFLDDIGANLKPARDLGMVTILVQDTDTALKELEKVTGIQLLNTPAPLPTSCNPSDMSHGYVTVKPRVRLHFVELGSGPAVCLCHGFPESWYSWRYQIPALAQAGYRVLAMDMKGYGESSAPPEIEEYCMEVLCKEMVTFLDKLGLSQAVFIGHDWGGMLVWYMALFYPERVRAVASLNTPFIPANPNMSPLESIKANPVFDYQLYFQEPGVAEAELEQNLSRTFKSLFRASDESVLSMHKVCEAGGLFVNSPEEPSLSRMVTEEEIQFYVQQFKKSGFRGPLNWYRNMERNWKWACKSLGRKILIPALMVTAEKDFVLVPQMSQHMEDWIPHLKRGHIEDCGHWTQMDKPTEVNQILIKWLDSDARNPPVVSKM
# Assay: Inhibition of human recombinant sEH using PHOME as substrate preincubated for 30 mins followed by substrate addition measured for 30 mins by fluorescence-based assay
# Conditions: not given
row,SMILES,IC50 [nM]
1,CCOC(=O)C(CC)Cc1ccc(C(=O)NCc2ccc(C(F)(F)F)cc2)cc1 (configuration not stated),570
2,CCOC(=O)C(CC)Cc1ccc(C(=O)NCc2ccc(OC)cc2)cc1 (configuration not stated),620
3,CCOC(=O)C(CC)Cc1ccc(C(=O)NCc2ccc(OC)cc2C(F)(F)F)cc1 (configuration not stated),30
4,CCC(Cc1ccc(C(=O)NCc2ccc(OC(F)(F)F)cc2)cc1)C(=O)O (configuration not stated),14000
5,CCOC(=O)C(CC)Cc1ccc(C(=O)NCc2ccccc2OC(F)(F)F)cc1 (configuration not stated),30
6,CCOC(=O)C(CC)Cc1ccc(C(=O)NCc2ccccc2)cc1 (configuration not stated),8500
7,CCC(Cc1ccc(C(=O)NCc2ccc(Cl)cc2)cc1)C(=O)O (configuration not stated),1500
8,CCOC(=O)C(CC)Cc1ccc(C(=O)NCc2ccccc2Cl)cc1 (configuration not stated),3800
9,CCOC(=O)C(CC)Cc1ccc(C(=O)NCc2ccc(F)cc2)cc1 (configuration not stated),2200
10,CCC(Cc1ccc(C(=O)NCc2ccc(F)cc2C(F)(F)F)cc1)C(=O)O (configuration not stated),1200
11,CCOC(=O)C(CC)Cc1ccc(C(=O)NCc2ccc(OC(F)(F)F)cc2)cc1 (configuration not stated),900
12,CCOC(=O)C(CC)Cc1ccc(C(=O)NCc2ccc(Cl)cc2)cc1 (configuration not stated),1700
13,CCOC(=O)C(CC)Cc1ccc(C(=O)NCc2ccc(F)cc2C(F)(F)F)cc1 (configuration not stated),120
14,CCOC(=O)C(CC)Cc1ccc(C(=O)NCc2ccccc2C)cc1 (configuration not stated),900

# Biological target: T2, Peroxisome proliferator-activated receptor delta (Homo sapiens) (UniProt Q03181)
# T2 sequence (whole entry): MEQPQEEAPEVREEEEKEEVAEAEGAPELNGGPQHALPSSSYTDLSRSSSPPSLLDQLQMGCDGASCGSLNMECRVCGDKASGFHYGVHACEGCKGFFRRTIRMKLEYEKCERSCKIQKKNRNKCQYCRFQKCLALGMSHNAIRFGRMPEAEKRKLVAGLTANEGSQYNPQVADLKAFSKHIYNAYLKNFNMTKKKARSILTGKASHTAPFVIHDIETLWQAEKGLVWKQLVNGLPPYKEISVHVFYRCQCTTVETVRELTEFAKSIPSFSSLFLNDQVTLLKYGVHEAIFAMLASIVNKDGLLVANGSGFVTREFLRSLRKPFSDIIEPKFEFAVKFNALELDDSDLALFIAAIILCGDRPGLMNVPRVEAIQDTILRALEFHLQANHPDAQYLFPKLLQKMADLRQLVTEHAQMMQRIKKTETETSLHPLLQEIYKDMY
# Assay: Transactivation of human PPARdelta expressed in African green monkey COS7 cells at 10 uM incubated overnight by dual-glo luciferase reporter assay
# Assay type: cell-based
# Conditions: COS-7
row,SMILES,Emax
1,O=C(O)CCc1ccc(C(=O)NCc2ccccc2C(F)(F)F)cc1,inactive
2,CC/C(=C\c1ccc(C(=O)NCc2ccccc2C(F)(F)F)cc1)C(=O)O,inactive
3,CCOC(=O)C(Cc1ccc(C(=O)NCc2ccccc2C(F)(F)F)cc1)c1ccccc1 (configuration not stated),inactive

# Biological target: T3, Peroxisome proliferator-activated receptor alpha (Homo sapiens) (UniProt Q07869)
# T3 sequence (whole entry): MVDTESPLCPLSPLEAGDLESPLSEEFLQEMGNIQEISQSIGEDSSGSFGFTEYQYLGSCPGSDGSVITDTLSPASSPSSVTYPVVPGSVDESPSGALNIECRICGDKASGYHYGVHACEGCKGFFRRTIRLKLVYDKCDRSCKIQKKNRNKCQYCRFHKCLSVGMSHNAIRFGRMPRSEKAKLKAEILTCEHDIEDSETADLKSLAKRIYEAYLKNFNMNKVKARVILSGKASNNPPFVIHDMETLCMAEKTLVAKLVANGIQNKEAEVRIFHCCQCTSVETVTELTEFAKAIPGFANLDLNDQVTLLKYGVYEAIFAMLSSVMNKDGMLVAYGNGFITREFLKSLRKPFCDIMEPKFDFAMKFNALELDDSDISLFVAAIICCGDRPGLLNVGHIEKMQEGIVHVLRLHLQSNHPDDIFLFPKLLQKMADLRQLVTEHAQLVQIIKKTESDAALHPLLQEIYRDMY
# Assay: Transactivation of human PPARalpha expressed in African green monkey COS7 cells at 10 uM incubated overnight by dual-glo luciferase reporter assay
# Assay type: cell-based
# Conditions: COS-7
row,SMILES,Activity [%]
1,CCOC(=O)C(CC)Cc1ccc(C(=O)NCc2ccc(C(F)(F)F)cc2)cc1 (configuration not stated),22
2,CCOC(=O)C(CC)Cc1ccc(C(=O)NCc2ccc(OC)cc2C(F)(F)F)cc1 (configuration not stated),22
3,CCOC(=O)C(CC)Cc1ccc(C(=O)NCc2ccccc2C)cc1 (configuration not stated),15

# Biological target: T4, Peroxisome proliferator-activated receptor delta (Homo sapiens, UniProt Q03181)
# T4 sequence (Q03181 whole entry): T2 sequence (whole entry)
# Assay: Transactivation of human PPARdelta expressed in African green monkey COS7 cells incubated overnight by dual-glo luciferase reporter gene assay
# Assay type: cell-based
# Conditions: cos-7
row,SMILES,EC50
1,O=C(O)CCc1ccc(C(=O)NCc2ccccc2C(F)(F)F)cc1,Not Active
2,CC/C(=C\c1ccc(C(=O)NCc2ccccc2C(F)(F)F)cc1)C(=O)O,Not Active
3,CCOC(=O)C(CC)Cc1ccc(C(=O)NCc2ccc(C(F)(F)F)cc2)cc1 (configuration not stated),Not Active
4,CCOC(=O)C(Cc1ccc(C(=O)NCc2ccccc2C(F)(F)F)cc1)c1ccccc1 (configuration not stated),Not Active
5,CCOC(=O)C(CC)Cc1ccc(C(=O)NCc2ccc(OC)cc2)cc1 (configuration not stated),Not Active
6,CCOC(=O)C(CC)Cc1ccc(C(=O)NCc2ccc(OC)cc2C(F)(F)F)cc1 (configuration not stated),Not Active
7,CCC(Cc1ccc(C(=O)NCc2ccc(OC(F)(F)F)cc2)cc1)C(=O)O (configuration not stated),Not Active
8,CCOC(=O)C(CC)Cc1ccc(C(=O)NCc2ccccc2OC(F)(F)F)cc1 (configuration not stated),Not Active
9,CCOC(=O)C(CC)Cc1ccc(C(=O)NCc2ccccc2)cc1 (configuration not stated),Not Active
10,CCC(Cc1ccc(C(=O)NCc2ccc(Cl)cc2)cc1)C(=O)O (configuration not stated),Not Active
11,CCOC(=O)C(CC)Cc1ccc(C(=O)NCc2ccccc2Cl)cc1 (configuration not stated),Not Active
12,CCOC(=O)C(CC)Cc1ccc(C(=O)NCc2ccc(F)cc2)cc1 (configuration not stated),Not Active
13,CCC(Cc1ccc(C(=O)NCc2ccc(F)cc2C(F)(F)F)cc1)C(=O)O (configuration not stated),Not Active
14,CCOC(=O)C(CC)Cc1ccc(C(=O)NCc2ccc(OC(F)(F)F)cc2)cc1 (configuration not stated),Not Active
15,CCOC(=O)C(CC)Cc1ccc(C(=O)NCc2ccc(Cl)cc2)cc1 (configuration not stated),Not Active
16,CCOC(=O)C(CC)Cc1ccc(C(=O)NCc2ccc(F)cc2C(F)(F)F)cc1 (configuration not stated),Not Active
17,CCOC(=O)C(CC)Cc1ccc(C(=O)NCc2ccccc2C)cc1 (configuration not stated),Not Active

# Biological target: T5, Peroxisome proliferator-activated receptor alpha (Homo sapiens, UniProt Q07869)
# T5 sequence (Q07869 whole entry): T3 sequence (whole entry)
# Conditions: cos-7
# Description: Transactivation of human PPARalpha expressed in African green monkey COS7 cells incubated overnight by dual-glo luciferase reporter gene assay
row,SMILES,EC50
1,O=C(O)CCc1ccc(C(=O)NCc2ccccc2C(F)(F)F)cc1,Not Active
2,CC/C(=C\c1ccc(C(=O)NCc2ccccc2C(F)(F)F)cc1)C(=O)O,Not Active
3,CCOC(=O)C(Cc1ccc(C(=O)NCc2ccccc2C(F)(F)F)cc1)c1ccccc1 (configuration not stated),Not Active
4,CCOC(=O)C(CC)Cc1ccc(C(=O)NCc2ccc(OC)cc2)cc1 (configuration not stated),Not Active
5,CCOC(=O)C(CC)Cc1ccc(C(=O)NCc2ccccc2OC(F)(F)F)cc1 (configuration not stated),Not Active
6,CCOC(=O)C(CC)Cc1ccc(C(=O)NCc2ccccc2)cc1 (configuration not stated),Not Active
7,CCC(Cc1ccc(C(=O)NCc2ccc(Cl)cc2)cc1)C(=O)O (configuration not stated),Not Active
8,CCOC(=O)C(CC)Cc1ccc(C(=O)NCc2ccccc2Cl)cc1 (configuration not stated),Not Active
9,CCOC(=O)C(CC)Cc1ccc(C(=O)NCc2ccc(F)cc2)cc1 (configuration not stated),Not Active
10,CCC(Cc1ccc(C(=O)NCc2ccc(F)cc2C(F)(F)F)cc1)C(=O)O (configuration not stated),Not Active
11,CCOC(=O)C(CC)Cc1ccc(C(=O)NCc2ccc(Cl)cc2)cc1 (configuration not stated),Not Active
12,CCOC(=O)C(CC)Cc1ccc(C(=O)NCc2ccc(F)cc2C(F)(F)F)cc1 (configuration not stated),Not Active

# Biological target: T3, Peroxisome proliferator-activated receptor alpha (Homo sapiens)
# Assay: Transactivation of human PPARalpha expressed in African green monkey COS7 cells incubated overnight by dual-glo luciferase reporter assay relative to GW7647
# Assay type: cell-based
# Conditions: COS-7
row,SMILES,Emax
1,O=C(O)CCc1ccc(C(=O)NCc2ccccc2C(F)(F)F)cc1,inactive
2,CC/C(=C\c1ccc(C(=O)NCc2ccccc2C(F)(F)F)cc1)C(=O)O,inactive
3,CCOC(=O)C(Cc1ccc(C(=O)NCc2ccccc2C(F)(F)F)cc1)c1ccccc1 (configuration not stated),inactive
4,CCOC(=O)C(CC)Cc1ccc(C(=O)NCc2ccc(OC)cc2)cc1 (configuration not stated),inactive
5,CCOC(=O)C(CC)Cc1ccc(C(=O)NCc2ccccc2OC(F)(F)F)cc1 (configuration not stated),inactive
6,CCOC(=O)C(CC)Cc1ccc(C(=O)NCc2ccccc2)cc1 (configuration not stated),inactive
7,CCC(Cc1ccc(C(=O)NCc2ccc(Cl)cc2)cc1)C(=O)O (configuration not stated),inactive
8,CCOC(=O)C(CC)Cc1ccc(C(=O)NCc2ccccc2Cl)cc1 (configuration not stated),inactive
9,CCOC(=O)C(CC)Cc1ccc(C(=O)NCc2ccc(F)cc2)cc1 (configuration not stated),inactive
10,CCC(Cc1ccc(C(=O)NCc2ccc(F)cc2C(F)(F)F)cc1)C(=O)O (configuration not stated),inactive
11,CCOC(=O)C(CC)Cc1ccc(C(=O)NCc2ccc(Cl)cc2)cc1 (configuration not stated),inactive
12,CCOC(=O)C(CC)Cc1ccc(C(=O)NCc2ccc(F)cc2C(F)(F)F)cc1 (configuration not stated),inactive

# Tested on: not listed separately
# Assay: Solubility of the compound in water by microplate reader analysis
# Assay type: physicochemical
# Conditions: not given
row,SMILES,solubility [µM]
1,O=C(O)CCc1ccc(C(=O)NCc2ccccc2C(F)(F)F)cc1,375
2,CCOC(=O)C(Cc1ccc(C(=O)NCc2ccccc2C(F)(F)F)cc1)c1ccccc1 (configuration not stated),3.75
3,CCOC(=O)C(CC)Cc1ccc(C(=O)NCc2ccc(OC)cc2)cc1 (configuration not stated),7.5
4,CCOC(=O)C(CC)Cc1ccc(C(=O)NCc2ccccc2OC(F)(F)F)cc1 (configuration not stated),75
5,CCC(Cc1ccc(C(=O)NCc2ccc(Cl)cc2)cc1)C(=O)O (configuration not stated),375
6,CCOC(=O)C(CC)Cc1ccc(C(=O)NCc2ccc(Cl)cc2)cc1 (configuration not stated),7.5

# Reference: ChEMBL document CHEMBL3763124, “N-Benzylbenzamides: A Novel Merged Scaffold for Orally Available Dual Soluble Epoxide Hydrolase/Peroxisome Proliferator-Activated Receptor γ Modulators” (J Med Chem, 2016)
